Source: the CheMixHub ionic liquid set
± gives the uncertainty stated by the source.

Assay: xn = mol fraction of the nth substance listed
Conditions: 101 kPa

CC[n+]1ccn(C)c1.O=C([O-])C(F)(F)F + O
Conditions	electrical conductivity, 298.15 K [S/m]	electrical conductivity, 313.15 K [S/m]	viscosity, 293.15 K [mPa·s]	viscosity, 298.15 K [mPa·s]	viscosity, 303.15 K [mPa·s]	viscosity, 313.15 K [mPa·s]
x1 = 0.001	0.3 ± 0.01	0.41 ± 0.02	1.01 ± 0.02	0.9 ± 0.02	0.8 ± 0.02	0.66 ± 0.02
x1 = 0.003	0.79 ± 0.03	1.1 ± 0.1	1.05 ± 0.02	0.93 ± 0.02	0.84 ± 0.02	0.69 ± 0.02
x1 = 0.004	1.2 ± 0.1	1.6 ± 0.1	1.1 ± 0.02	0.98 ± 0.02	0.87 ± 0.02	0.72 ± 0.02
x1 = 0.006	1.6 ± 0.1	2.2 ± 0.1	1.16 ± 0.03	1.03 ± 0.02	0.92 ± 0.02	0.75 ± 0.02
x1 = 0.009	2 ± 0.1	2.5 ± 0.1	1.24 ± 0.03	1.1 ± 0.02	0.98 ± 0.02	0.81 ± 0.02
x1 = 0.014	2.6 ± 0.1	3.7 ± 0.2	1.4 ± 0.03	1.25 ± 0.03	1.12 ± 0.02	0.92 ± 0.02
x1 = 0.02	3.1 ± 0.1	4.4 ± 0.2	1.57 ± 0.03	1.4 ± 0.03	1.2 ± 0.03	0.97 ± 0.02
x1 = 0.033	4 ± 0.2	5.6 ± 0.2	2.01 ± 0.04	1.75 ± 0.04	1.54 ± 0.03	1.21 ± 0.03
x1 = 0.051	4.4 ± 0.2	6.6 ± 0.3	2.53 ± 0.05	2.2 ± 0.05	1.92 ± 0.04	1.5 ± 0.03
x1 = 0.065	4.6 ± 0.2	6.9 ± 0.3	3 ± 0.06	2.58 ± 0.05	2.24 ± 0.05	1.74 ± 0.04
x1 = 0.108	4.5 ± 0.2	6.9 ± 0.3	4.39 ± 0.09	3.76 ± 0.08	3.25 ± 0.07	2.49 ± 0.05
x1 = 0.159	4.2 ± 0.2	6.3 ± 0.3	6.17 ± 0.13	5.28 ± 0.11	4.55 ± 0.09	3.46 ± 0.07
x1 = 0.243	3.5 ± 0.2	5.3 ± 0.2	8.98 ± 0.19	7.65 ± 0.16	6.56 ± 0.14	4.96 ± 0.1
x1 = 0.406	2.5 ± 0.1	3.7 ± 0.2	–	–	–	–
x1 = 0.418	–	–	14.4 ± 0.3	12.3 ± 0.3	10.6 ± 0.2	8 ± 0.2
x1 = 0.502	2.2 ± 0.1	3.4 ± 0.1	17.3 ± 0.4	14.8 ± 0.3	12.6 ± 0.3	9.5 ± 0.2
x1 = 0.53	2 ± 0.1	3.1 ± 0.1	18.7 ± 0.4	15.9 ± 0.3	13.6 ± 0.3	10.2 ± 0.2
x1 = 0.759	1.5 ± 0.1	2.3 ± 0.1	26.8 ± 0.6	22.7 ± 0.5	19.3 ± 0.4	14.3 ± 0.3
x1 = 1	1 ± 0.1	1.6 ± 0.1	39.5 ± 0.9	32.9 ± 0.7	27.5 ± 0.6	19.9 ± 0.5
